Assay results reported in the Kinase Knowledgebase extract (Sharma et al. 2016).
pIC50: −log10 of the molar value.

These molecules were tested against CDK2 (human) (UniProt P24941) (assay: Enzyme Assay).

Row | Compound | pIC50
1 | CCC(CO)Nc1nc(NCc2ccc(OC)c(O)c2)c2nnn(C(C)C)c2n1 (stereo not given) | 5.64
2 | CCC(CO)Nc1nc(NCc2ccccc2)c2nnn(C(C)C)c2n1 (stereo not given) | 5.39
3 | CC(C)C(CO)Nc1nc(Nc2cccc(Cl)c2)c2nnn(C(C)C)c2n1 (stereo not given) | 4.70
4 | CC(C)n1nnc2c(NCc3ccc(O)cc3)nc(N[C@H]3CC[C@H](N)CC3)nc21 | 5.55
5 | CC(C)C(CO)Nc1nc(NCc2ccccc2O)c2nnn(C(C)C)c2n1 (stereo not given) | 6.08
6 | CC(C)n1nnc2c(Nc3cccc(Cl)c3)nc(N[C@H]3CC[C@H](N)CC3)nc21 | 5.96
7 | O[C@H]1CC[C@H](Nc2nc(NCC3CCCCC3)c3nnn(Cc4ccccc4)c3n2)CC1 | < 4.00
8 | CC(C)C(CO)Nc1nc(NCc2cccc(O)c2)c2nnn(C(C)C)c2n1 (stereo not given) | 5.10
9 | CC(C)C(CO)Nc1nc(NCc2ccccc2)c2nnn(C(C)C)c2n1 (stereo not given) | 5.14
10 | CCC(CO)Nc1nc(NCc2ccccc2O)c2nnn(C(C)C)c2n1 (stereo not given) | 5.92
11 | CC(C)n1nnc2c(NCc3cccc(O)c3)nc(N[C@H]3CC[C@H](N)CC3)nc21 | 5.31
12 | COc1ccc(CNc2nc(N[C@@H]3CCCC[C@@H]3N)nc3c2nnn3C(C)C)cc1O | 4.86
13 | CC(C)n1nnc2c(NCc3ccccc3O)nc(N[C@H]3CC[C@H](N)CC3)nc21 | 4.79
14 | CC(C)n1nnc2c(NCc3ccccc3)nc(NCCCO)nc21 | 4.00
15 | CCC(CO)Nc1nc(NCc2cccc(O)c2)c2nnn(C(C)C)c2n1 (stereo not given) | 5.00
16 | CCCCCCNc1nc(NC(CO)c2ccccc2)c2nnn(C(C)C)c2n1 (stereo not given) | < 4.00
17 | CC(C)n1nnc2c(NCc3ccccc3O)nc(N[C@@H]3CCCC[C@@H]3N)nc21 | 5.39
18 | O[C@H]1CC[C@H](Nc2nc(Nc3cccc(Cl)c3)c3nnn(Cc4ccccc4)c3n2)CC1 | < 4.00
19 | CC(C)n1nnc2c(NCc3ccccc3)nc(N[C@H]3CC[C@H](N)CC3)nc21 | 4.95
20 | CC(C)n1nnc2c(NCc3ccccc3O)nc(NCc3ccccc3O)nc21 | < 4.00
